By inhibition is commonly meant how much of the control response was suppressed.

Results on 3 compounds are retold here after patent US6455593B1, “Method of dynamic retardation of cell cycle kinetics to potentiate cell damage” (priority 1995, dated 2002).

Like-named read-outs stand apart in the source and are kept apart here.

The subject of experiment [1] is p. falciparum D6. Briefly: Parasite growth by 3H-hypoxanthine uptake in infected erythrocytes. Conditions: Plasmodium falciparum, D6, Erythrocyte, read-out: inhibitory concentrations (IC50), strain D6. The experiment is classed as cell-based.
For experiment [2], the system named is Daudi cells. As to the kind of experiment: MIS MTT growth inhibition assay. The experiment is classed as cell-based, human. From the text:
(§1) A dye, 3-[4,5-dimethylthiazol-2-yl]-2,5-diphenyl-tetrazolium bromide (MTT), was used as a chromogenic indicator of the metabolically active cell mass. Viable cells metabolize the dye and accumulate a reduced formazan product (blue color) which is solubilized for colorimetry. Mossman T, J. Immunol. Methods 5:55-63 (1983); Li L and Lau B H S, In Vitro Cell Dev. Biol. 29A:531-536 (1993). The MTT assay has been established as useful for measuring either growth inhibition or population killing. Plowman, supra. The MTT method is ideal for cells tested in suspension growth, and can also be used for some cells growing in monolayers. […] Alley, supra; Hofs, supra; Wilson J K et al., Br. J. Cancer 62:189-94 (1990); Plowman, supra.
(§2) Thirty μl of 0.5% MTT in phosphate buffered saline was added to each microculture well at the appropriate time. After incubation at 37° C. for 3 hr, 120 μl of an aqueous solution of 10 % SDS with 0.01 N HCl was added to release and dissolve formazan product. This was accomplished by overnight incubation of the plate at 37° C. After careful mixing of the microwell contents by placing the plates on an orbital shaker for 5 minutes the absorbencies were quantitated by spectrophotometry at 570 nm with a Ceres UV 900 HDI microwell plate reader (from Biotek Instruments Inc, Winooski, Vt. 05404-0998). Absorbance data was normalized to a blank well containing all reagents without cells and was collected semi-automatically.
(§3) Flat-bottom 96-well plates of tissue culture quality (Corning or Costar) were set up with two-fold serial dilutions of each agent to be tested, e.g., the RA and TCI, using a multichannel pipettor with adjustable volume, e.g., Costar or Rainin, to perform serial mixing. This set-up is diagrammed in FIG. 12. […] In each plate, a total of 59 wells then contained bivariate agent combinations, the bivariate serial dilutions.
A general note: Formazan colour is commonly taken as a measure of viable cells.

The test system of experiment [3] is U937 cells. As to the kind of experiment: Flow cytometric cell cycle analysis (propidium iodide). The experiment is classed as cell-based, human. To be noted: U937. The method, then:
Flow cytometric analyses were performed with a Coulter Epics System (purchased from Coulter Corp, Hialeah, Fla.). Cells were disrupted in buffer with 0.1% Triton-X 100 (or 0.6 % NP-40), so that the nuclei could be stained with 0.05% propidium iodide (PI). See Shapiro N M, Practical Flow Cytometry, Man R Liss, NY (1988); Nicoletti I et al., J Immunol Methods 139:271-9 (1991). Analyses of 10,000 nuclei were performed with graduated concentrations of dThd at serial time points. Histograms of PI fluorescent emissions at 675±10 nm were used to discriminate cell cycle fractions of the target population. The proportion of cells in each phase of the cell cycle is represented by stack bars above the X-axis as a fraction of those cells with intact DNA structure. The fraction of cells with depleted DNA in each sample is represented below the X-axis as a percentage of the total cell number. Cells with depleted DNA are presumed apoptotic. Crompton S T et. al. Biophys. Biochem. Res. Comm. 183:532-537 (1992). Each stack bar in FIG. 5 represents the cell cycle distribution of a population sample of >10,000 cells, analyzed for each indicated dThd concentration at indicated treatment times.
Flow cytometric analyses were performed as in Example 2. The results are shown in plot A of FIG. 5 from Example 2.
The U937 cells were exposed to a range of concentrations below the IC40 and sampled for flow cytometry at intervals of 8, 16, and 24 hours. Flow cytometric analysis was performed as described in Example 2.
On the technique in general: In flow cytometry, cells or beads pass a laser one at a time.

The subject of experiment [4] is U937 cells. Briefly: Pilot test of enhancement of gamma radiation damage. The experiment is classed as cell-based, human. To be noted: STSP as RA, approximately 25 nM, pilot data.
Source text: Serial two-fold changes in calibrated radioactive dosages are combined with two-fold serial dilutions of an agent being tested as an RA or a TCI.
The subject of experiment [5] is pRb. As to the kind of experiment: Immunoblot of pRb phosphorylation status. The experiment is classed as cell-based, human. The method, then:
Whole cell extracts (U937 cells) were prepared in an SDS 2×sample buffer (100 mM Tris.HCl (pH 6.8), 200 mM DTT and 4% sodium dodecyl sulfate) and boiled for 5 minutes. Protein concentrations were assayed, and samples of 100 μg of protein per lane were applied to 7.5% SDS-polyacrylamide gels (PAGE). Resolved proteins were transferred to Immobilon P (Millipore), and pRb was localized with monoclonal anti-pRb (Santa Cruz, IF8) and a chemiluminescence procedure (Amersham ECL). Samples for flow cytometry were prepared and flow cytometry was performed as described in Example 2.
(In general: In western blotting, separated proteins are transferred to a membrane and probed.)

The test system of experiment [6] is Burkitt's lymphoma cell line Raji. As to the kind of experiment: MIS MTT growth inhibition assay. The experiment is classed as cell-based, human. To be noted: Raji cells (Tk deficient).
Experiment [7] relates to HL-60 cells. As to the kind of experiment: MIS MTT growth inhibition assay. The experiment is classed as cell-based, human.
Source text: as §1, §2, §3

Setting [8] is: Homo sapiens, 4 h, read-out: MTT % inhibition, Aph only.
[9] abbreviates: Homo sapiens, HL-60, 2 h, dThd […] 2 H, STSP 0, read-out: MTT % inhibition, dThd only.

Regarding `C[C@@]1(CO)[C@H](O)CC[C@@]2(C)[C@H]1CC[C@H]1C[C@@H]3C[C@@]12CC[C@]3(O)CO` [Aph, aphidicolin], the IC50 in experiment [1] (24 hr after RBC infection, 3H-hypoxanthine uptake) turned out to be 0.4 µM. Also, the “combined results ratio, Aph only (baseline line)” value in experiment [2] (Aph alone, every Aph concentration 8.00-0.02 ug/ml) is 1.0. Besides, in experiment [2] (setting [8]), the inhibition at 0.02 µg/mL was determined as 0%, the inhibition at 0.03 µg/mL turned out to be 1%, the inhibition at 0.06 µg/mL was found to be 4% and the inhibition at 0.5 µg/mL was 8%. Also, in experiment [2] (setting [8]), the inhibition at 1 µg/mL was determined as 8%, the inhibition at 2 µg/mL was determined as 9%, the inhibition at 4 µg/mL turned out to be 16% and the inhibition at 8 µg/mL worked out at 28%.
On to `CN[C@@H]1C[C@H]2O[C@@](C)([C@@H]1OC)n1c3ccccc3c3c4c(c5c6ccccc6n2c5c31)C(=O)NC4` [STSP, staurosporine], for which the “Effect on cell cycle distribution” value in experiment [3] (50 nM STSP, from 4 hours, shown at 8 hr and 24 hours) is “gradually accumulated in the G2 and M phases”. For the same compound, the IC50 in experiment [1] amounted to 0.19 µM. In experiment [4], the “Effect on gamma radiation damage” value was “an enhancing effect upon damage produced by a single exposure of the U937 cells to 2.5 to 10 Gy of gamma radiation”.
As to `Cc1cn([C@H]2C[C@H](O)[C@@H](CO)O2)c(=O)[nH]c1=O` [dThd, deoxythymidine], in experiment [3] (0.2 mM dThd), the “Effect on cell cycle progression” value was “permitted continuous cell transit”. In addition, the “Effect on cell cycle progression” value in experiment [3] (3 mM dThd) is reported as “arrested cell cycle progression at G1/S”. In experiment [5] (0.2 mM dThd), the pRb phosphorylation entry is “did not appear to be grossly inhibited”. Moreover, the pRb phosphorylation entry in experiment [5] (3 mM dThd, 4 or 11 hours) is “pRb phosphorylation was inhibited”. Further, the “IC40, growth inhibition” value in experiment [6] is more than 4000 µM. Further, in experiment [7] (Homo sapiens, HL-60, 2 h, dThd 0.01 mM 2 H, STSP 0, read-out: MTT % inhibition, dThd only), the inhibition at 10 µM was found to be 2%. Moreover, in experiment [7] (Homo sapiens, HL-60, 2 h, dThd 0.01 mM (column 8, lowest) 2 H, STSP 0, read-out: MTT % inhibition, dThd only), the inhibition at 10 µM was found to be 5%. The inhibition at 20 µM in experiment [7] (Homo sapiens, HL-60, 2 h, dThd 0.02 mM 2 H, STSP 0, read-out: MTT % inhibition, dThd only) was 7%. The inhibition at 50 µM in experiment [7] (Homo sapiens, HL-60, 2 h, dThd 0.05 mM 2 H, STSP 0, read-out: MTT % inhibition, dThd only) stood at 10%. Moreover, in experiment [7] (Homo sapiens, HL-60, 2 h, dThd 0.09 mM 2 H, STSP 0, read-out: MTT % inhibition, dThd only), the inhibition at 90 µM worked out at 13%. Also, the inhibition at 3000 µM in experiment [7] (Homo sapiens, HL-60, 2 h, dThd 3.00 mM 2 H, STSP 0, read-out: MTT % inhibition, dThd only) is 59%. For the same compound, in experiment [7] (setting [9]), the inhibition at 190 µM amounted to 20%, the inhibition at 380 µM came out at 28%, the inhibition at 750 µM was determined as 40% and the inhibition at 1500 µM is 49%. The “combined results ratio, dThd only (baseline line)” value in experiment [7] (dThd alone, dThd 3.00-0.09 mM) is listed as 1.0.
